Measured values from US11969428B2, “Methods and pharmaceutical compositions for treating lymphoid malignancy” (priority 2011, dated 2024).

Experiments:
Assay in all cases: Ambit KinomeScan screening
Format in all cases: binding
Conditions in all cases: CAL-130 10 μM
ABL1(T315I) = molecular target: T1, ABL1(T315I) (Homo sapiens, UniProt P00519, T315I)
T1 construct: unspecified tag ("tagged kinases"); purchased Ambit (KinomeScan screening)
How it was run: (§1)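 Read-out is % of control binding: the tagged kinase retained on an immobilized bait ligand when CAL-130 is present at 10 μM. A lower percentage reflects stronger compound interaction, and anything over 35% counts as no hit.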

ABL1(Y253F) = molecular target: T2, ABL1(Y253F) (Homo sapiens, UniProt P00519, Y253F)
T2 construct: unspecified tag ("tagged kinases"); purchased Ambit (KinomeScan screening)
How it was run: as §1

ADCK4 = molecular target: T3, ADCK4 (Homo sapiens, UniProt Q96D53)
T3 construct: purchased Ambit (KinomeScan screening)
How it was run: as §1

AURKA = molecular target: T4, AURKA (Homo sapiens, UniProt O14965)
T4 construct: purchased Ambit (KinomeScan screening service)
How it was run: as §1

BTK = molecular target: T5, BTK (Homo sapiens, UniProt Q06187)
T5 construct: unspecified tag ("tagged kinases"); purchased Ambit (KinomeScan screening)
How it was run: as §1

CLK2 = molecular target: T6, CLK2 (Homo sapiens, UniProt P49760)
T6 construct: purchased Ambit (KinomeScan screening service)
How it was run: as §1

DCAMKL2 = molecular target: T7, DCAMKL2 (Homo sapiens, UniProt Q8N568)
T7 construct: unspecified tag ("tagged kinases"); purchased Ambit (KinomeScan screening service)
How it was run: as §1

DCAMKL3 = molecular target: T8, DCAMKL3 (Homo sapiens, UniProt Q9C098)
T8 construct: unspecified tag ("tagged kinases"); purchased Ambit (KinomeScan screening service)
How it was run: as §1

DMPK = molecular target: T9, DMPK (Homo sapiens, UniProt Q09013)
T9 construct: unspecified tag ("tagged kinases"); purchased Ambit (KinomeScan screening service)
How it was run: as §1

DRAK1 = molecular target: T10, DRAK1 (Homo sapiens, UniProt Q9UEE5)
T10 construct: unspecified tag ("tagged kinases"); purchased Ambit (KinomeScan screening service)
How it was run: as §1

[1] = molecular target: T11, EGFR(L747-E749DEL, A750P) (Homo sapiens, UniProt P00533, A750P/DEL747-749)
T11 construct: unspecified tag; purchased Ambit (KinomeScan screening service)
How it was run: as §1

FGFR4 = molecular target: T12, FGFR4 (Homo sapiens, UniProt P22455)
T12 construct: unspecified tag; purchased Ambit (KinomeScan screening service)
How it was run: as §1

FGR = molecular target: T13, FGR (Homo sapiens, UniProt P09769)
T13 construct: unspecified tag; purchased Ambit (KinomeScan screening service)
How it was run: as §1

GSK3B = molecular target: T14, GSK3B (Homo sapiens, UniProt P49841)
T14 construct: unspecified tag ('tagged kinases'); purchased Ambit (KinomeScan screening service)
How it was run: as §1

ICK = molecular target: T15, ICK (Homo sapiens, UniProt Q9UPZ9)
T15 construct: Ambit (KinomeScan screening)
How it was run: as §1

INSR = molecular target: T16, INSR (Homo sapiens, UniProt P06213)
T16 construct: Ambit (KinomeScan screening)
How it was run: as §1

JAK1(JH2domain) = molecular target: T17, JAK1(JH2domain) (Homo sapiens, UniProt P23458)
T17 construct: JAK1(JH2domain); purchased Ambit (KinomeScan screening)
How it was run: as §1

JNK1 = molecular target: T18, JNK1 (Homo sapiens, UniProt P45983)
T18 construct: purchased Ambit (KinomeScan screening)
How it was run: as §1

KIT(L576P) = molecular target: T19, KIT(L576P) (Homo sapiens, UniProt P10721, L576P)
T19 construct: purchased Ambit (KinomeScan screening)
How it was run: as §1

LIMK1 = molecular target: T20, LIMK1 (Homo sapiens, UniProt P53667)
T20 construct: unspecified tag ('tagged kinases'); purchased Ambit (KinomeScan screening service)
How it was run: as §1

MAP4K2 = molecular target: T21, MAP4K2 (Homo sapiens, UniProt Q12851)
T21 construct: Ambit (KinomeScan screening)
How it was run: as §1

MAP4K5 = molecular target: T22, MAP4K5 (Homo sapiens, UniProt Q9Y4K4)
T22 construct: Ambit (KinomeScan screening)
How it was run: as §1

MARK2 = molecular target: T23, MARK2 (Homo sapiens, UniProt Q7KZI7)
T23 construct: Ambit (KinomeScan screening)
How it was run: as §1

MYLK2 = molecular target: T24, MYLK2 (Homo sapiens, UniProt Q9H1R3)
T24 construct: unspecified tag; purchased Ambit (KinomeScan screening panel)
How it was run: as §1

MYO3B = molecular target: T25, MYO3B (Homo sapiens, UniProt Q8WXR4)
T25 construct: unspecified tag; purchased Ambit (KinomeScan screening panel)
How it was run: as §1

NEK1 = molecular target: T26, NEK1 (Homo sapiens, UniProt Q96PY6)
T26 construct: unspecified tag; purchased Ambit (KinomeScan screening panel)
How it was run: as §1

NEK9 = molecular target: T27, NEK9 (Homo sapiens, UniProt Q8TD19)
T27 construct: purchased Ambit (KinomeScan screening service)
How it was run: as §1

PAK1 = molecular target: T28, PAK1 (Homo sapiens, UniProt Q13153)
T28 construct: purchased Ambit (KinomeScan screening service)
How it was run: as §1

PHKG2 = molecular target: T29, PHKG2 (Homo sapiens, UniProt P15735)
T29 construct: unspecified tag ('tagged kinases'); purchased Ambit (KinomeScan screening)
How it was run: as §1

PRKCQ = molecular target: T30, PRKCQ (Homo sapiens, UniProt Q04759)
T30 construct: purchased Ambit (KinomeScan screening service)
How it was run: as §1

RPS6KA1 = molecular target: T31, RPS6KA1 (Homo sapiens, UniProt Q15418)
T31 construct: unspecified tag (tagged kinase); purchased Ambit (KinomeScan screening)
How it was run: as §1

STK35 = molecular target: T32, STK35 (Homo sapiens, UniProt Q8TDR2)
T32 construct: tag (kind not specified); purchased Ambit (KinomeScan screening service)
How it was run: as §1

SgK110 = molecular target: T33, SgK110 (Homo sapiens, UniProt P0C264)
T33 construct: tag, kind not specified; purchased Ambit (KinomeScan screening service)
How it was run: as §1

TAOK3 = molecular target: T34, TAOK3 (Homo sapiens, UniProt Q9H2K8)
T34 construct: tag (kind not specified); purchased Ambit (KinomeScan screening service)
How it was run: as §1

WEE1 = molecular target: T35, WEE1 (Homo sapiens, UniProt P30291)
T35 construct: purchased Ambit (KinomeScan screening service)
How it was run: as §1

Measured: Percent of Control Binding

T20 sequence (P53667 whole entry): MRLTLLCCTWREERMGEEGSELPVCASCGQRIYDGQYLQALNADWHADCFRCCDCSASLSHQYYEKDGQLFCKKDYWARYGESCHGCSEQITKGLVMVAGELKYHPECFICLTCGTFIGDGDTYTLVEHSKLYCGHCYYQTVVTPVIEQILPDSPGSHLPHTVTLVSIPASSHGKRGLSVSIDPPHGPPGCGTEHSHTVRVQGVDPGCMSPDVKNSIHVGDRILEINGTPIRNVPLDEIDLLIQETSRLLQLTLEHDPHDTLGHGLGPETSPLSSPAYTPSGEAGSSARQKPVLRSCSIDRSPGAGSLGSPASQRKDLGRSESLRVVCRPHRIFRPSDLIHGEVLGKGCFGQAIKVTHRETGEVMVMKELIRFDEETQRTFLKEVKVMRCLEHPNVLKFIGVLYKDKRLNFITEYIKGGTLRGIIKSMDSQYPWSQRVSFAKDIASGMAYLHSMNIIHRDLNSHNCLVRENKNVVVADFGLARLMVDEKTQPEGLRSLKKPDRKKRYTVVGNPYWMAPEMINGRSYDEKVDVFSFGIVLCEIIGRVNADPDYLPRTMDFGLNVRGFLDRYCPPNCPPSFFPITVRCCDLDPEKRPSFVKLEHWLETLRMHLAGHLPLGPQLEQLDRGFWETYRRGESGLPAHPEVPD
T14 sequence (P49841 whole entry): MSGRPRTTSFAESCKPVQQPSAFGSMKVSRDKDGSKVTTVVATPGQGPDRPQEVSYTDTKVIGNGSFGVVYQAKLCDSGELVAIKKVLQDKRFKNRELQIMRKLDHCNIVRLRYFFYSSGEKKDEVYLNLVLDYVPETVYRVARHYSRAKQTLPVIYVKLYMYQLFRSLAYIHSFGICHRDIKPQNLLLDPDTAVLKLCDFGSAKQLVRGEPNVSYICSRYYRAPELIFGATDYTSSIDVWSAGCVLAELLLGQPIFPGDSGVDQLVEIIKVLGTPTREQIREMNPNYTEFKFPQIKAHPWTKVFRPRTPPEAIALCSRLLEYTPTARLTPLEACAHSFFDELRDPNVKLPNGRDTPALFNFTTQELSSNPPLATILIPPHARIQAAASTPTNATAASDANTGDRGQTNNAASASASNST
T7 sequence (Q8N568 whole entry): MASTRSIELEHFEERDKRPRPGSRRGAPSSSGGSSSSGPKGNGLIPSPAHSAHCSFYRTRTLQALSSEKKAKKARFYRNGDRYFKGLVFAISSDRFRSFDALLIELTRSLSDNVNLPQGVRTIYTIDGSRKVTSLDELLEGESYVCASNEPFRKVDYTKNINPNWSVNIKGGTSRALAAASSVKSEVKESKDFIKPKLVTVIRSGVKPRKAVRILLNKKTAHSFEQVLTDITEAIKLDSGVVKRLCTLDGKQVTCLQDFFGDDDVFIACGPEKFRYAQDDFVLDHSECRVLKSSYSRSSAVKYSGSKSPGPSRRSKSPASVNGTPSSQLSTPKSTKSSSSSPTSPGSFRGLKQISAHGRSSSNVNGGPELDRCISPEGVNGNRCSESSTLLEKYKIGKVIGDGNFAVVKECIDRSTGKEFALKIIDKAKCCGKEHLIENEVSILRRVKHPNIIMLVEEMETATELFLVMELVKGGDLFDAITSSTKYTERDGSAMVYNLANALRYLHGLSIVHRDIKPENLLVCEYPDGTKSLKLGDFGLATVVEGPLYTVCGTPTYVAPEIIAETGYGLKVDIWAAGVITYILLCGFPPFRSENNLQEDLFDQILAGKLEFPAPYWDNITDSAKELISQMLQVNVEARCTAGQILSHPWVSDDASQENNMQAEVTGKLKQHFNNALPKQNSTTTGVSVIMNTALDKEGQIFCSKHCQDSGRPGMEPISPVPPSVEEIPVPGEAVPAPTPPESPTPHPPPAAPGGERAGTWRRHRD
T8 sequence (Q9C098 whole entry): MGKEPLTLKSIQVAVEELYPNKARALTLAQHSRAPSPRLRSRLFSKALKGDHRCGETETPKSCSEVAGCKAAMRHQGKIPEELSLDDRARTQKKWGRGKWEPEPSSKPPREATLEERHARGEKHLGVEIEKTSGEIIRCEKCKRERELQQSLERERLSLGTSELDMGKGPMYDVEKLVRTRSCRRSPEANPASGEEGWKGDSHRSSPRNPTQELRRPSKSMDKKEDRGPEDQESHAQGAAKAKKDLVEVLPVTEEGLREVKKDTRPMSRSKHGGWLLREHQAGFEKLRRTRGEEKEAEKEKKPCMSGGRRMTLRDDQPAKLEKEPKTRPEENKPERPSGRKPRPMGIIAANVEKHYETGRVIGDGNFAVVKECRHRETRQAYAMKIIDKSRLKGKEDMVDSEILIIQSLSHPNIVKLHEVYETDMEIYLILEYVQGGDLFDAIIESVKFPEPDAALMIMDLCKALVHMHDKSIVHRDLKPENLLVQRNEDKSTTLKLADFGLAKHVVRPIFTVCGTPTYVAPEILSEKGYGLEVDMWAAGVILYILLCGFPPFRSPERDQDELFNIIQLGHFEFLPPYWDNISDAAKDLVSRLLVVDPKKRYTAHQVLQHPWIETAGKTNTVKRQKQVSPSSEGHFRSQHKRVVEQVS
T24 sequence (Q9H1R3 whole entry): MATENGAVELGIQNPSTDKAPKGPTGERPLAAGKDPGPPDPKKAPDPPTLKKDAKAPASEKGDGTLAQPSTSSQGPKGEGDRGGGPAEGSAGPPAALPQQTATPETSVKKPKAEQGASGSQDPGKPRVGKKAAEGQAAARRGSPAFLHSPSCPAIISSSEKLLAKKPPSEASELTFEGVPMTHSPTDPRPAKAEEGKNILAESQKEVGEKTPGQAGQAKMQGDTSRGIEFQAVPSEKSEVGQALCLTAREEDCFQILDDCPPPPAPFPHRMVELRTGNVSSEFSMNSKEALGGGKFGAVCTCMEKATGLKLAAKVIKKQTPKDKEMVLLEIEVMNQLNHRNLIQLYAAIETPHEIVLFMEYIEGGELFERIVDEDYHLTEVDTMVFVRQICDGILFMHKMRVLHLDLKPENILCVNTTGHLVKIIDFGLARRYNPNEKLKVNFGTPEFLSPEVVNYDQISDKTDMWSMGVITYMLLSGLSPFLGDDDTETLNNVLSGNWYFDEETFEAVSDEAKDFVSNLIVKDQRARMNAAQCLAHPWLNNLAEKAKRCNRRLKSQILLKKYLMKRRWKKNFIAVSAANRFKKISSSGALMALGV
T19 sequence (P10721 26-976 L576P): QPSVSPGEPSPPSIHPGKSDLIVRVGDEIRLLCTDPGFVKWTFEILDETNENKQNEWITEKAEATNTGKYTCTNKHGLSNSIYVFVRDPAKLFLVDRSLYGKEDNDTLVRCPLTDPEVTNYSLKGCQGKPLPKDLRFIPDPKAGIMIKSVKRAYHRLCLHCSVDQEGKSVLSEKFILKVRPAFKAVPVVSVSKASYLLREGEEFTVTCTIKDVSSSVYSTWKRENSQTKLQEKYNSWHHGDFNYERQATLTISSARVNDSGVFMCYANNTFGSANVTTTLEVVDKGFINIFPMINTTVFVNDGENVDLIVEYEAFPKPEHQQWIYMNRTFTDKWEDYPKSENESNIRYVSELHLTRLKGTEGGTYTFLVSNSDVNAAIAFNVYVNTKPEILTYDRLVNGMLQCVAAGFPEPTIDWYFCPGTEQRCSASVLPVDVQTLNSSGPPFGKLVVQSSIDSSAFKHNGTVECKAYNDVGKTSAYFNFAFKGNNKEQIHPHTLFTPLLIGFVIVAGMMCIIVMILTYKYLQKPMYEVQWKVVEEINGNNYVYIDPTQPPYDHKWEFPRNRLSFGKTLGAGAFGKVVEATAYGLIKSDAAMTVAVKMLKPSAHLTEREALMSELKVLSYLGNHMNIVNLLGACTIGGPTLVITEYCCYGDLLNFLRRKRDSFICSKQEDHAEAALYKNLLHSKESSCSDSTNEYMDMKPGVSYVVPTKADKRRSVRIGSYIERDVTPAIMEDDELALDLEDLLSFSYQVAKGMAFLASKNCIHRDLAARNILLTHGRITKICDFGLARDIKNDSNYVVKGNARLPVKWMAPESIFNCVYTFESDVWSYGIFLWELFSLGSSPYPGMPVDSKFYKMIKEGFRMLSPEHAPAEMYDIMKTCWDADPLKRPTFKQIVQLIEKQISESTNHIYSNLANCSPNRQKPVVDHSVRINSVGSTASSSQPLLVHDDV
T21 sequence (Q12851 whole entry): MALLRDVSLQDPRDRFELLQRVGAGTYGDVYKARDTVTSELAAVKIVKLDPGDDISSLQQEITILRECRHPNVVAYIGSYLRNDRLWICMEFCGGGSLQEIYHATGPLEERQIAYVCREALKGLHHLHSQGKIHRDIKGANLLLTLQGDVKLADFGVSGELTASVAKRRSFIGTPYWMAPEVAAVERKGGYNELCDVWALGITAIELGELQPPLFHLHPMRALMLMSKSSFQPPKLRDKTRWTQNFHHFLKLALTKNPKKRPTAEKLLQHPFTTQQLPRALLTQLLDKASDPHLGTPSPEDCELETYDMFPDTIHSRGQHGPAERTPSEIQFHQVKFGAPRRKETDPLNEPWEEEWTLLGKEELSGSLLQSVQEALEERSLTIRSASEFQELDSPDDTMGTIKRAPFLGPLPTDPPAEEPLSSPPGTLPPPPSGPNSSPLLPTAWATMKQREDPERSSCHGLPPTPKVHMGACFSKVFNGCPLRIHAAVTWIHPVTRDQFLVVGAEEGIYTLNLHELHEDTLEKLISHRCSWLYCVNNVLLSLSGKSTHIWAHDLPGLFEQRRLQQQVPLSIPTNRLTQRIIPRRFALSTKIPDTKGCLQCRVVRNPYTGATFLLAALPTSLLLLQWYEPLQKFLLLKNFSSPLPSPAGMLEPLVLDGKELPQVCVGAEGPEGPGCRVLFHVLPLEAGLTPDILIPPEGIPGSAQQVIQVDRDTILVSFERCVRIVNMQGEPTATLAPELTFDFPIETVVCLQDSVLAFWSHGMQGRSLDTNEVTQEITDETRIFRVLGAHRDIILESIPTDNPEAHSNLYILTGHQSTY

Cc1ccccc1-n1c(C(C)Nc2nc(N)nc3nc[nH]c23)nc2cccc(C)c2c1=O (centres unmarked) [CAL-130]
100%: ABL1(T315I) | ABL1(Y253F) | ADCK4 | AURKA | BTK | CLK2 | DCAMKL2 | DCAMKL3 | DMPK | DRAK1 | [1] | FGFR4 | FGR | GSK3B | ICK | INSR | JAK1(JH2domain) | JNK1 | KIT(L576P) | LIMK1 | MAP4K2 | MAP4K5 | MARK2 | MYLK2 | MYO3B | NEK1 | NEK9 | PAK1 | PHKG2 | PRKCQ | RPS6KA1 | STK35 | SgK110 | TAOK3 | WEE1
